# Paper PMC11257039, “VCP activator reverses nuclear proteostasis defects and enhances TDP-43 aggregate clearance in multisystem proteinopathy models” (The Journal of Clinical Investigation, 2024)
# “And” between values parts separate entries of the source, which are not always exact repeats. Equal values may be shown once.
# Tests used:
# [1] = target: T1, R155H VCP (Mus musculus, UniProt Q01853, R155H); assay: MESG-PNP ATPase assay, recombinant R155H VCP; format: biochemical; conditions: VCP Mutation R155H; replicate values
# T1 construct: in the full-length recombinant VCP; His (N); made in house; host or cells: Escherichia coli BL21-CodonPlus (DE3)-RIL
# Procedure: (§1) All other experiments were performed using the EnzCheck phosphatase assay kit (Molecular Probes). ATPase activity was measured in a 96-well flat bottom plate (Thermo Fisher Scientific). 50 nM VCP was incubated in 100 μL ATPase buffer with 2% DMSO with 25 μM compound and various ATP concentrations. The absorbance at 360 ± 5 nm was measured for more than 15 minutes at 25°C. Phosphate release was quantified based on a phosphate standard curve performed on the same plate. Initial enzyme velocity was determined by fitting the linear portion of the data to a linear regression model.
# (§2) Figure S8. VCP activators variable effect on ATPase activity of MSP associated mutations in recombinant VCP. ATPase activity of 50 nM recombinant VCP protein was measured using an MESG-PNP assay upon treatment with 25 μM compound versus 2% DMSO control at 1mM ATP for WT (also shown in Fig. 5c), A232E, R155H, and R159H (n=3 with 3 technical replicated per experiment; points are expressed as beta ± SE, linear effects model: *P<0.05,**P<0.01; ***P<0.001; ****P<0.0001).
# [2] = target: T2, A232E VCP (Mus musculus, UniProt Q01853, A232E); assay: MESG-PNP ATPase assay, recombinant A232E VCP; format: biochemical; conditions: VCP Mutation A232E; replicate values
# T2 construct: in the full-length recombinant VCP; His (N); made in house; host or cells: Escherichia coli BL21-CodonPlus (DE3)-RIL
# Procedure: as §1, §2
# [3] = tested on: WT HeLa cells expressing GFP-TDP-4FL; assay: Flow cytometry of GFP-TDP-4FL integrated fluorescence, WT HeLa; format: cell-based; conditions: for Integrated Fluorescence WT (Normalized to CHX): 4 μM MG132 17 h
# Procedure: Drug treatments were performed on neurons 7 days after lentiviral transduction and 14 days after neuronal induction. HeLa cells were collected using trypsin and pelleted at 1000g for 3 minutes. Cell pellets were resuspended in colorless DMEM (Invitrogen) supplemented with 2% FBS and filtered through a BD tube with cell strainer (BD Biosciences) for flow cytometry analysis on LSR II (BD Biosciences). Data analysis was performed on FlowJo v10 software. Integrated fluorescence intensity was determined by multiplying percent positive GFP and GFP median fluorescence values.
# [4] = target: T3, recombinant WT VCP (Mus musculus, UniProt Q01853); assay: MESG-PNP (EnzCheck) phosphate release ATPase assay, WT VCP; format: biochemical; conditions: for ATPase activity v0/ET: 25 μM compound, replicate experiments
# T3 construct: in the full-length recombinant VCP; His (N); made in house; host or cells: Escherichia coli BL21-CodonPlus (DE3)-RIL
# Procedure: as §1
# (§3) Experiments with varied compound concentration were fit to a 3-parameter dose curve with asymmetric profile likelihood 95% confidence intervals in GraphPad Prism 9 (GraphPad). Experiments with varied ATP concentration were fit to a Michaelis-Menten model with asymmetric profile likelihood 95% confidence intervals. Significance was determined for experiments with fixed compound or fixed ATP concentration using a linear mixed-effects model.
# [5] = target: T3, recombinant WT VCP; assay: Kinase-Glo ATPase assay, recombinant WT VCP; format: biochemical; conditions: for ATP consumed: WT VCP no UN
# Procedure: (§4) Experiments with varied activator concentration and screening were measured using the Kinase-Glo Luminescent Kinase Assay (Promega). Reactions were incubated at 25°C for 1 hour then reduced to 4°C in a thermocycler consisting of 50 nM of recombinant VCP with or without 50 nM UFD1/NPLOC4 in 50 uL ATPase buffer (25 mM HEPES, pH 7.5, 100 mM NaCl, 10 mM MgCl2) at 2% DMSO with 62.5 μM ATP and a range of activator concentrations (Gibco, Sigma-Aldrich). Equal volumes of reaction and Kinase-Glo reagent were incubated for 20 minutes at room temperature in a 96 well white flat bottom plate (Corning). Luminescence was measured in a microplate reader (Spark 20M, Tecan).
# as §3
# [6] = target: T4, WT VCP + Ufd1/Nploc4 (Mus musculus, UniProt Q01853); assay: Kinase-Glo ATPase assay, WT VCP with UFD1/NPLOC4 (UN); format: biochemical; conditions: for ATP consumed: WT VCP with UN
# T4 construct: in the full-length recombinant VCP; His (N); made in house; host or cells: E. coli (VCP: BL21-CodonPlus (DE3)-RIL; UFD1 and NPLOC4: E. coli (DE3), purified by the MD Anderson core)
# Procedure: as §4, §3
# [7] = tested on: luciferase; assay: Luciferase counter assay: Kinase-Glo with 62.5 μM ATP without recombinant VCP; format: biochemical; conditions: for measured ATP consumed (nmol) without VCP: replicate values
# Procedure: as §4
# (A-D) Measured ATP as determined by a Kinase-Glo assay of 62.5μM ATP in the presence of increasing concentrations of compound without recombinant VCP present. (for all panels: n=3 with 4 technical replicates per experiment, points are expressed as beta ± SE, linear mixed effects model, P>0.05 for each […]
# (1 picture or pasted object on this page, not shown here)
# [8] = target: T5, R159H VCP (Mus musculus, UniProt Q01853, R159H); assay: MESG-PNP ATPase assay, recombinant R159H VCP; format: biochemical; conditions: VCP Mutation R159H; replicate values
# T5 construct: in the full-length recombinant VCP; His (N); made in house; host or cells: Escherichia coli BL21-CodonPlus (DE3)-RIL
# Procedure: as §1, §2
# [9] = tested on: 26S proteasome; assay: 26S proteasome activity, Suc-LLVY-AMC fluorescence; format: biochemical, human; conditions: 25 μM compound, versus 1% DMSO
# Procedure: 26S proteasome and substrate suc-LLVY-AMC were purchased (LifeSensors, Inc.). Fluorescence was measured in a microplate reader using a 96-well optical bottom black plate (Thermo Fisher Scientific). […] 26S proteasome was incubated in 100 μL proteasome buffer (20 mM HEPES, pH 7.5, 0.5 mM EDTA, 0.05% Triton-X) with 100 μM suc-LLVY-AMC, 1 mM ATP, and 25 μM compound or 1% DMSO. Fluorescence was measured at excitation 380 ± 10nm and emission 460 ± 10nm for more than 15 minutes at 37°C. Initial velocity was determined by fitting the linear portion of the data to a linear regression model. Significance was determined for using a linear mixed-effects model.
# T2 sequence (Q01853 whole entry A232E): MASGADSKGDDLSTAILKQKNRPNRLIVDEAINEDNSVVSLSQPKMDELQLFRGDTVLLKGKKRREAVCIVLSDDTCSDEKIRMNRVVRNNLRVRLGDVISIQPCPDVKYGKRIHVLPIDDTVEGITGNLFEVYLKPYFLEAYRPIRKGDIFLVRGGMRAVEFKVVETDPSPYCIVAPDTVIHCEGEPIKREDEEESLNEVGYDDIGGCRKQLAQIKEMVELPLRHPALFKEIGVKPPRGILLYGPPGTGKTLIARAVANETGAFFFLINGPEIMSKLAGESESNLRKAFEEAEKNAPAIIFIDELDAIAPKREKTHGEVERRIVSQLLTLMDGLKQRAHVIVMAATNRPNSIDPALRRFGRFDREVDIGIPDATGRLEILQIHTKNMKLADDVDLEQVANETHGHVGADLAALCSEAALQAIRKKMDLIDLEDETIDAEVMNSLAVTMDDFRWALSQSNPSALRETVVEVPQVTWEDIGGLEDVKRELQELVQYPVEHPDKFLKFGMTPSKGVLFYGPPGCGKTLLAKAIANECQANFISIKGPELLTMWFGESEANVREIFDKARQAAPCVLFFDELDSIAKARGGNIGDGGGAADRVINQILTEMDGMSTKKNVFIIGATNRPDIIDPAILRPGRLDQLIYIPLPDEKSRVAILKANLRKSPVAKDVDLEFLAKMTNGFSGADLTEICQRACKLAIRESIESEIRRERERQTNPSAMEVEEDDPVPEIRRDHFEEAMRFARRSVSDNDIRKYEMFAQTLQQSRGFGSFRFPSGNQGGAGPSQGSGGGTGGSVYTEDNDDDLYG
# T3 sequence (Q01853 whole entry): as the sequence (Q01853 whole entry A232E) above, with E232A counted along it
# T4 sequence (Q01853 whole entry): as the sequence (Q01853 whole entry A232E) above, with E232A counted along it
# T4 sequence (Q92890 whole entry partner): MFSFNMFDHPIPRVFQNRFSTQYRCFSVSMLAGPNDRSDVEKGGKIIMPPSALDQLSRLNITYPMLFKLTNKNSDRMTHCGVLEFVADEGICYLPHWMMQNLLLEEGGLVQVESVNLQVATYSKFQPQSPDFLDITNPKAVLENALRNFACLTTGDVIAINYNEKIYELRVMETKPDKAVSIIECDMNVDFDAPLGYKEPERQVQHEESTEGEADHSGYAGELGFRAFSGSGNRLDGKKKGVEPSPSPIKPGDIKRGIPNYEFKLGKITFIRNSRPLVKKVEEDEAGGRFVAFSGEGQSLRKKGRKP
# T4 sequence (Q8TAT6 whole entry partner): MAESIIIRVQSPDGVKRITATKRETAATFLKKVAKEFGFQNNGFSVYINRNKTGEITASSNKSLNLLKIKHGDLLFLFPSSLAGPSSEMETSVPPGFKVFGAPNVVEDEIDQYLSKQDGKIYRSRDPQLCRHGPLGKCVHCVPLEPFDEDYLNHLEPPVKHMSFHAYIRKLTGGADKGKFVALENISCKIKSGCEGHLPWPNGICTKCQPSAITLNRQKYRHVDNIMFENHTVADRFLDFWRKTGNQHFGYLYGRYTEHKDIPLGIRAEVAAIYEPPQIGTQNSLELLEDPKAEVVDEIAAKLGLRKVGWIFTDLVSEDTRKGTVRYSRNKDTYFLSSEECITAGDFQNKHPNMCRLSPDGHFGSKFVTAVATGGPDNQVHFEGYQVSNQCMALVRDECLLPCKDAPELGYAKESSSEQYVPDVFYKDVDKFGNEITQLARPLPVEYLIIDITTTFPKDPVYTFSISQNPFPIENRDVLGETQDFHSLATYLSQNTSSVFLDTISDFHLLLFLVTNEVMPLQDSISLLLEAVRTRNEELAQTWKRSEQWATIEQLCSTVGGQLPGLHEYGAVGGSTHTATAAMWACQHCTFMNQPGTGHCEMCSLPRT
# T5 sequence (Q01853 whole entry R159H): as the sequence (Q01853 whole entry A232E) above, with R159H, E232A counted along it
# T1 sequence (Q01853 whole entry R155H): as the sequence (Q01853 whole entry A232E) above, with R155H, E232A counted along it
structure (smiles),measurement,setting,value
O=C(CSc1nc2ccccc2c(=O)n1NC(=O)c1ccccc1)c1ccc(Cl)cc1 [UP12],"ATPase activity, nmol Pi / nmol VCP / s",[1],0.592 nmol Pi / nmol VCP / s and 0.458 nmol Pi / nmol VCP / s and 0.468 nmol Pi / nmol VCP / s
same,"ATPase activity, nmol Pi / nmol VCP / s",[2],1.130 nmol Pi / nmol VCP / s and 0.838 nmol Pi / nmol VCP / s and 0.963 nmol Pi / nmol VCP / s
same,Integrated Fluorescence WT (Normalized to CHX),[3]; then CHX with 5 μM compound 4 h,0.972 and 1.128 and 1.069 and 1.136 and 1.032 and 0.941
same,Integrated Fluorescence WT (Normalized to CHX),[3]; then CHX with 20 μM compound 4 h,0.894 and 0.971 and 1.353 and 0.977 and 0.848 and 0.689
same,clearance of GFP-TDP-4FL aggregates (integrated fluorescence),"[3]; MG132, then CHX with 5 or 20 μM activator",did not have a significant effect
same,kcat (nmol Pi / nmol VCP / s) (95% CI),[4]; 25 μM activator,"0.309 (0.269, 0.356) nmol Pi / nmol VCP / s"
same,increase in kcat,"[4]; 25 μM activator, versus DMSO",about 25%
same,ATPase activity v0/ET,[4]; [ATP] 62.5 μM,0.164 nmol Pi / nmol VCP / s and 0.127 nmol Pi / nmol VCP / s and 0.154 nmol Pi / nmol VCP / s
same,ATPase activity v0/ET,[4]; [ATP] 125 μM,0.234 nmol Pi / nmol VCP / s and 0.182 nmol Pi / nmol VCP / s and 0.208 nmol Pi / nmol VCP / s
same,ATPase activity v0/ET,[4]; [ATP] 250 μM,0.282 nmol Pi / nmol VCP / s and 0.230 nmol Pi / nmol VCP / s and 0.291 nmol Pi / nmol VCP / s
same,ATPase activity v0/ET,[4]; [ATP] 500 μM,0.289 nmol Pi / nmol VCP / s and 0.232 nmol Pi / nmol VCP / s and 0.265 nmol Pi / nmol VCP / s
same,ATPase activity v0/ET,[4]; [ATP] 1000 μM,0.320 nmol Pi / nmol VCP / s and 0.260 nmol Pi / nmol VCP / s and 0.293 nmol Pi / nmol VCP / s
same,EC50,"[5]; EC50 (μM) (95% CI), WT VCP without UN, 50 nM VCP, 62.5 μM ATP, 2% DMSO",1.57 µM
same,ATP consumed,[5]; 0.20 μM compound,0.972 nmol and 0.921 nmol and 1.113 nmol
same,ATP consumed,[5]; 0.39 μM compound,1.046 nmol and 0.999 nmol and 1.126 nmol
same,ATP consumed,[5]; 0.78 μM compound,1.028 nmol and 1.027 nmol and 1.185 nmol
same,ATP consumed,[5]; 1.56 μM compound,1.050 nmol and 1.001 nmol and 1.186 nmol
same,ATP consumed,[5]; 3.13 μM compound,0.987 nmol and 1.173 nmol and 1.366 nmol
same,ATP consumed,[5]; 6.25 μM compound,1.164 nmol and 1.158 nmol and 1.362 nmol
same,ATP consumed,[5]; 12.5 μM compound,1.242 nmol and 1.397 nmol and 1.210 nmol
same,ATP consumed,[5]; 25 μM compound,1.202 nmol and 1.262 nmol and 1.324 nmol
same,recombinant WT VCP ATPase activity,[5]; in vitro validation of 106 screen hits,significantly increased
same,increase of VCP activity,"[5]; maximum, WT VCP without UN",39%
same,change in EC50 with UN compared to without UN,[6],non-significant decreases
same,change in maximum percent activity with UN compared to without UN,[6],significantly decreased
same,EC50,"[6]; WT VCP + Ufd1/Nploc4, 1:1 molar ratio",648 nM
same,ATP consumed,[6]; 0.20 μM compound,1.300 nmol and 1.366 nmol and 1.077 nmol
same,ATP consumed,[6]; 0.39 μM compound,1.441 nmol and 1.399 nmol and 1.156 nmol
same,ATP consumed,[6]; 0.78 μM compound,1.422 nmol and 1.447 nmol and 1.306 nmol
same,ATP consumed,[6]; 1.56 μM compound,1.523 nmol and 1.537 nmol and 1.366 nmol
same,ATP consumed,[6]; 3.13 μM compound,1.496 nmol and 1.548 nmol and 1.334 nmol
same,ATP consumed,[6]; 6.25 μM compound,1.632 nmol and 1.536 nmol and 1.400 nmol
same,ATP consumed,[6]; 12.5 μM compound,1.663 nmol and 1.623 nmol and 1.427 nmol
same,ATP consumed,[6]; 25 μM compound,1.544 nmol and 1.491 nmol and 1.364 nmol
same,luciferase activity (measured ATP without VCP),"[7]; 62.5 μM ATP, increasing concentrations of compound",did not inhibit luciferase activity
same,measured ATP consumed (nmol) without VCP,[7]; compound 6.25 μM,3.153 nmol and 3.247 nmol and 3.452 nmol and 3.556 nmol and 3.276 nmol and 3.463 nmol and 3.531 nmol and 3.381 nmol and 3.251 nmol and 3.386 nmol and 3.279 nmol and 3.064 nmol
same,measured ATP consumed (nmol) without VCP,[7]; compound 12.5 μM,3.163 nmol and 3.366 nmol and 3.532 nmol and 3.606 nmol and 3.351 nmol and 3.662 nmol and 3.334 nmol and 3.435 nmol and 3.323 nmol and 3.733 nmol and 3.427 nmol and 3.076 nmol
same,measured ATP consumed (nmol) without VCP,[7]; compound 25 μM,3.243 nmol and 3.452 nmol and 3.683 nmol and 3.709 nmol and 3.371 nmol and 3.627 nmol and 3.582 nmol and 3.248 nmol and 3.318 nmol and 3.356 nmol and 3.238 nmol and 3.225 nmol
same,measured ATP consumed (nmol) without VCP,[7]; compound 50 μM,3.199 nmol and 3.663 nmol and 3.673 nmol and 3.419 nmol and 3.053 nmol and 3.725 nmol and 3.509 nmol and 3.086 nmol and 3.588 nmol and 3.442 nmol and 3.634 nmol and 3.113 nmol
same,measured ATP consumed (nmol) without VCP,[7]; compound 100 μM,3.128 nmol and 3.612 nmol and 3.580 nmol and 3.474 nmol and 3.673 nmol and 3.565 nmol and 3.583 nmol and 2.931 nmol and 3.556 nmol and 3.479 nmol and 3.581 nmol and 3.246 nmol
same,"ATPase activity, nmol Pi / nmol VCP / s",[8],0.579 nmol Pi / nmol VCP / s and 0.685 nmol Pi / nmol VCP / s and 0.536 nmol Pi / nmol VCP / s
same,% activity of 26S proteasome,[9],94.3% and 79.8% and 83.9% and 107.1% and 92.8% and 109.7%
